ChEMBL document CHEMBL5154644, “Design, Synthesis, and Structure-Activity Relationship Optimization of Pyrazolopyrimidine Amide Inhibitors of Phosphoinositide 3-Kinase γ (PI3Kγ)” (J Med Chem, 2022)
The source made the active and inactive calls. The calls are words filed in the database; no cut-off is given here.

Columns and labels:
[1] = Hepatic clearance in Sprague-Dawley rat by LC-MS/MS analysis; type: ADME; settings: in vivo
[2] = biological target: T1, Phosphatidylinositol 4,5-bisphosphate 3-kinase catalytic subunit gamma isoform (Homo sapiens, UniProt P48736); experiment: Inhibition of PI3Kgamma in SDF-1alpha stimulated human whole blood assessed as reduction in phospho-AKT kinase activity preincubated for 1 hr followed by SDF-1alpha stimulation and measured after 2 mins by flow cytometric analysis; type: tissue-based
Target sequence in this assay (P48736 whole entry, canonical isoform): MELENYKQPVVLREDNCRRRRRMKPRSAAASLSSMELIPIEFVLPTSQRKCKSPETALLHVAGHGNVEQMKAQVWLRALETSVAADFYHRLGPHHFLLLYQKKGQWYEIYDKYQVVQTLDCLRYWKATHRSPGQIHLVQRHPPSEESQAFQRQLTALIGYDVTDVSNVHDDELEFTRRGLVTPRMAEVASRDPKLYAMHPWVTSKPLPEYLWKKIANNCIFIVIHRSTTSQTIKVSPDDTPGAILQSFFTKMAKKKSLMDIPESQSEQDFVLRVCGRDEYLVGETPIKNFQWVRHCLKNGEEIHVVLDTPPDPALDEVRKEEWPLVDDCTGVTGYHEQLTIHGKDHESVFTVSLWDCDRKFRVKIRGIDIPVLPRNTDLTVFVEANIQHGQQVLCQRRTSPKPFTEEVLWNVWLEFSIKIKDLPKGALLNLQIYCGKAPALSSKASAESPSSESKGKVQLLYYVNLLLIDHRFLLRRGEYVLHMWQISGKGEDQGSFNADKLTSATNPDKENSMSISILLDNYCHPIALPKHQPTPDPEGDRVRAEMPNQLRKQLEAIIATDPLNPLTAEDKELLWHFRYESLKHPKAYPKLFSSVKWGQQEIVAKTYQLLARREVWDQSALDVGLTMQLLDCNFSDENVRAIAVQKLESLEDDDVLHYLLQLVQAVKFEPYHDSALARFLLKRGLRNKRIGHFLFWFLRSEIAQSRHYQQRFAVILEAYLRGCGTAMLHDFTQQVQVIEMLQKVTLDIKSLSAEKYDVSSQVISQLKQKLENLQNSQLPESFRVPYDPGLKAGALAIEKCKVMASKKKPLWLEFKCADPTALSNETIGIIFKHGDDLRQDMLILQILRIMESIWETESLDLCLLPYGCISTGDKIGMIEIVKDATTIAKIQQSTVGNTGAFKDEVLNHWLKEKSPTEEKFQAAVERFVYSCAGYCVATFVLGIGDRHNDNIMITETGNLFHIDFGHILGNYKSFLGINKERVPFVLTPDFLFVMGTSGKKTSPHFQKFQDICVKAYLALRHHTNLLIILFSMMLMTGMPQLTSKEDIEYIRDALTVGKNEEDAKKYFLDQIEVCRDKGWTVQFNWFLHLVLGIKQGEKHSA

[3] = biological target: Phosphatidylinositol 4,5-bisphosphate 3-kinase catalytic subunit alpha isoform (Homo sapiens, UniProt P42336); experiment: Inhibition of PI3Kalpha (unknown origin) using PIP2 as substrate preincubated for 1 hr followed by substrate addition and measured after 60 mins in presence of ATP by ADP-glo assay
Homo sapiens [4] = species: Homo sapiens; experiment: Selectivity ratio of IC50 for inhibition of PI3Kalpha (unknown origin) to IC50 for inhibition of PI3Kgamma (unknown origin)
Homo sapiens [5] = species: Homo sapiens; experiment: Selectivity ratio of IC50 for inhibition of PI3Kbeta (unknown origin) to IC50 for inhibition of PI3Kgamma (unknown origin)
[6] = Plasma protein binding in Sprague-Dawley rat plasma at 1 mg/kg, iv measured up to 8 hrs by LC-MS/MS analysis; type: ADME, organism-based; settings: read-out: PPB (converted)
[7] = Clearance in C57BL/6 mouse at 0.5 mg/kg, iv; type: ADME, organism-based; settings: in vivo
[8] = Clearance in cynomolgus monkey at 1 mg/kg, iv; type: ADME, organism-based, Macaca fascicularis; settings: in vivo
[9] = Volume of distribution at steady state in cynomolgus monkey at 1 mg/kg, iv; type: ADME, organism-based, Macaca fascicularis; settings: in vivo
[10] = Half life in C57BL/6 mouse at 0.5 mg/kg, iv; type: ADME, organism-based; settings: in vivo
[11] = Half life in Sprague-Dawley rat at 1 mg/kg, iv measured up to 8 hrs by LC-MS/MS analysis; type: ADME, organism-based; settings: in vivo
[12] = AUC(0 to infinity) in C57BL/6 mouse at 0.5 mg/kg, iv; type: ADME, organism-based; set-up: time infinity, dose 0.5 mg/kg, route iv; settings: in vivo
[13] = Cmax in Sprague-Dawley rat at 10 mg/kg, po measured up to 24 hrs by LC-MS/MS analysis analysis; type: ADME, organism-based; set-up: dose 10 mg/kg, time < 24 hrs, route po; settings: in vivo
[14] = biological target: T1, Phosphatidylinositol 4,5-bisphosphate 3-kinase catalytic subunit gamma isoform; experiment: Inhibition of P13Kgamma in LPS and IFNgamma stimulated human M1 macrophage assessed as increase in IL12B expression at 1 uM pretreated for 1 hr followed by LPS and IFNgamma stimulation by qRT-PCR analysis; type: cell-based
Target sequence in this assay (P48736 whole entry, looked up, canonical isoform): as the sequence (P48736 whole entry, canonical isoform) above

[15] = (§1) Apparent permeability of the compound across apical to basolateral side in human Caco-2 cells; type: ADME, cell-based
CYP3A4 = CYP3A4 (Homo sapiens, UniProt P08684); experiment: in vitro; settings: human liver microsomes, probe midazolam
Description: Time dependent inhibition of CYP3A4 in human liver microsomes at 10 uM using midazolam as substrate preincubated for 30 mins in presence of NADPH by LC/MS/MS analysis relative to control

[16] = biological target: T1, Phosphatidylinositol 4,5-bisphosphate 3-kinase catalytic subunit gamma isoform; experiment: Inhibition of PI3Kgamma (unknown origin) at 10 uM using PIP2 as substrate preincubated for 60 mins followed by substrate addition and measured after 45 mins in presence of ATP by TR-FRET analysis
Target sequence in this assay (P48736 whole entry, canonical isoform): as above

Cytochrome P450 2B6 = biological target: T2, Cytochrome P450 2B6 (Homo sapiens, UniProt P20813); experiment: Time dependent inhibition of CYP2B6 in human liver microsomes at 40 uM measured after 5 to 20 mins in presence of NADPH by LC/MS/MS analysis; type: ADME, Microsome
T2 sequence (P20813 whole entry): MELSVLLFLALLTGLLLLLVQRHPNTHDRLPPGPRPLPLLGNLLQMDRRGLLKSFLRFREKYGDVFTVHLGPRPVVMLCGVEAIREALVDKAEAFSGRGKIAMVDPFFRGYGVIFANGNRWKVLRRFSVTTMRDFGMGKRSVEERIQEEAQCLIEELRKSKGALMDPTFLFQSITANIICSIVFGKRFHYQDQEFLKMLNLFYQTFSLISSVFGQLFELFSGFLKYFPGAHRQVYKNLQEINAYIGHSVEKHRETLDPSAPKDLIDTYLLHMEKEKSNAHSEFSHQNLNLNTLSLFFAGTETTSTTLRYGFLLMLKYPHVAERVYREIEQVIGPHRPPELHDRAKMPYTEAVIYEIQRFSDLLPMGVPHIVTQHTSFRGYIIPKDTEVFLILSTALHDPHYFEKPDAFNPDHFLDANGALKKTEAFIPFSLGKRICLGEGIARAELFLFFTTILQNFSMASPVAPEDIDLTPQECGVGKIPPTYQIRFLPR

Cytochrome P450 2C8 = biological target: T3, Cytochrome P450 2C8 (Homo sapiens, UniProt P10632); experiment: Time dependent inhibition of CYP2C8 in human liver microsomes at 40 uM measured after 5 to 20 mins in presence of NADPH by LC/MS/MS analysis; type: ADME, Microsome
T3 sequence (P10632 whole entry): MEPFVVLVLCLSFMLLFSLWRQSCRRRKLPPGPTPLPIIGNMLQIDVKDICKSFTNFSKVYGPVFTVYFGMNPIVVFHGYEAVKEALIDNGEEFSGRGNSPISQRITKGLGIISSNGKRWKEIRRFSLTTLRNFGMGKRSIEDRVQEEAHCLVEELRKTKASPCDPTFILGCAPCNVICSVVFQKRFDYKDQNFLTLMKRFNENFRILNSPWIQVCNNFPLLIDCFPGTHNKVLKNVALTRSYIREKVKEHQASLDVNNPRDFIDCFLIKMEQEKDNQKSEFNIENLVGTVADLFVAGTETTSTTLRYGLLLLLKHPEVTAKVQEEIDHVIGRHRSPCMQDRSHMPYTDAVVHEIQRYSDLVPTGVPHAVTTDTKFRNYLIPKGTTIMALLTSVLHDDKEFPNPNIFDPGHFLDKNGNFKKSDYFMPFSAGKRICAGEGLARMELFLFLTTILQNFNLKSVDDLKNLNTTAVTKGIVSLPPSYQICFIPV

Cytochrome P450 2C9 = Cytochrome P450 2C9 (Homo sapiens, UniProt P11712); experiment: Time dependent inhibition of CYP2C9 in human liver microsomes at 40 uM using diclofenac as substrate measured after 5 to 20 mins in presence of NADPH by LC/MS/MS analysis; type: ADME, Microsome
Cytochrome P450 2C19 = Cytochrome P450 2C19 (Homo sapiens, UniProt P33261); experiment: Time dependent inhibition of CYP2C19 in human liver microsomes at 40 uM using (S)-mephenytoin as substrate measured after 5 to 20 mins in presence of NADPH by LC/MS/MS analysis; type: ADME, Microsome
Cytochrome P450 2D6 = Cytochrome P450 2D6 (Homo sapiens, UniProt P10635); experiment: Time dependent inhibition of CYP2D6 in human liver microsomes at 40 uM using dextromethorphan as substrate measured after 5 to 20 mins in presence of NADPH by LC/MS/MS analysis; type: ADME, Microsome
Cytochrome P450 3A4 = Cytochrome P450 3A4 (Homo sapiens, UniProt P08684); experiment: Time dependent inhibition of CYP3A4 in human liver microsomes at 40 uM using midazolam as substrate measured after 5 to 20 mins in presence of NADPH by LC/MS/MS analysis; type: ADME, Microsome
[17] = biological target: Voltage-gated inwardly rectifying potassium channel KCNH2 (Homo sapiens, UniProt Q12809); experiment: Inhibition of human ERG by patch clamp assay; type: toxicity
[18] = as §1; type: toxicity, cell-based; settings: in vivo, 100 mg/kg, 168 h, time 7 day

Sequence of CYP3A4 (P08684 whole entry, canonical isoform): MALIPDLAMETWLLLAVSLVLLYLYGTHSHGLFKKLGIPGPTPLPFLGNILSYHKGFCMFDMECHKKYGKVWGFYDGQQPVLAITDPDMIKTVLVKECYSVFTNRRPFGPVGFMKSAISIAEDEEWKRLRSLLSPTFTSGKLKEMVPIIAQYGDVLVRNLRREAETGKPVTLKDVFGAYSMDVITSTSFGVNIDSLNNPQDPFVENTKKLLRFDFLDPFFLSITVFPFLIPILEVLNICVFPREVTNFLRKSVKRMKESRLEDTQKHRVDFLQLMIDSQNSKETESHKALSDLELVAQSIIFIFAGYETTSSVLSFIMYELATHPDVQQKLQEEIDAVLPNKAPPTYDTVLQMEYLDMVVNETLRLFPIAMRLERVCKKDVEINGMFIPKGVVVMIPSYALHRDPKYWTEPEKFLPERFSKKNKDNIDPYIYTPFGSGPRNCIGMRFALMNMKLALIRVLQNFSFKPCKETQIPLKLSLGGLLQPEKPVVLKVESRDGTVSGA
Sequence of Phosphatidylinositol 4,5-bisphosphate 3-kinase catalytic subunit alpha isoform (P42336 whole entry, canonical isoform): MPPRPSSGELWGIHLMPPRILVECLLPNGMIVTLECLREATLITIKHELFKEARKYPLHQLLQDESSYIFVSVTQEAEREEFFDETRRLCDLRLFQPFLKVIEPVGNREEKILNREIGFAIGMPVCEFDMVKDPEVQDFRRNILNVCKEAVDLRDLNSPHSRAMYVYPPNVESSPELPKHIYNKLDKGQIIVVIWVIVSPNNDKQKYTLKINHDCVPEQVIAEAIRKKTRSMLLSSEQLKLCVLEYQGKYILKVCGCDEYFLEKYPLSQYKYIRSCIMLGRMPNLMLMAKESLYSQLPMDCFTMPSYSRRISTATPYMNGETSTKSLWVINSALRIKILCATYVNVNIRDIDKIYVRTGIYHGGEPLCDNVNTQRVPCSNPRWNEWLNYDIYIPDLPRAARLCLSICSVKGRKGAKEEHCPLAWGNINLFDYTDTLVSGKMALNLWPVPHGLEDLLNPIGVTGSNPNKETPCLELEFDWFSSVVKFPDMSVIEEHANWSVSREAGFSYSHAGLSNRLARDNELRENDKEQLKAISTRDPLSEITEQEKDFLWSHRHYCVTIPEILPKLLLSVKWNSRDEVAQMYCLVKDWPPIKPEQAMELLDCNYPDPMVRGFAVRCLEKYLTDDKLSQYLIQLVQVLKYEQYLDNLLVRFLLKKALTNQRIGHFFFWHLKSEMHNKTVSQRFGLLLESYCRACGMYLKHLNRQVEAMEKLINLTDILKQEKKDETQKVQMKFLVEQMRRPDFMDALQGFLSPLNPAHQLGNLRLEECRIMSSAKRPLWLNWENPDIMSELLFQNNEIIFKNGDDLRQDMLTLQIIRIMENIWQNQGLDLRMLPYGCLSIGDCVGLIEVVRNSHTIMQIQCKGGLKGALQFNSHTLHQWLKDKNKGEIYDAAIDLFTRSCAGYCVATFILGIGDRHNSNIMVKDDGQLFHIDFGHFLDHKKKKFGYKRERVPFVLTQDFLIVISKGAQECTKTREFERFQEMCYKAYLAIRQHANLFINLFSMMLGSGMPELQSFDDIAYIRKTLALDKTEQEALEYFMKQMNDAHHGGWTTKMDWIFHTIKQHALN
Sequence of Cytochrome P450 2C9 (P11712 whole entry): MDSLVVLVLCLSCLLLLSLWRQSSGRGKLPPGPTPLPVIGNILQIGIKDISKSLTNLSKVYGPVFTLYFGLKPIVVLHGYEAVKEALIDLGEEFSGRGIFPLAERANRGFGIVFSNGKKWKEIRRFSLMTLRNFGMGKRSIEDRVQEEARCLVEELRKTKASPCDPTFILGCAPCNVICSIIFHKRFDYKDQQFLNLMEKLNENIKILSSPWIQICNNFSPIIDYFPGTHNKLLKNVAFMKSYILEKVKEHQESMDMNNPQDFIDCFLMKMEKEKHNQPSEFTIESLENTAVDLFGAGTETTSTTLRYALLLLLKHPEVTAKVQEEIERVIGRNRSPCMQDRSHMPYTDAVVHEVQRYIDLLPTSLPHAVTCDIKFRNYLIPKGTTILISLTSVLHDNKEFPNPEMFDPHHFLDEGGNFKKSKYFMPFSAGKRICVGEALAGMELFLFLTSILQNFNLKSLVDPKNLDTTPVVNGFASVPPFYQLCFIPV
Sequence of Voltage-gated inwardly rectifying potassium channel KCNH2 (Q12809 whole entry): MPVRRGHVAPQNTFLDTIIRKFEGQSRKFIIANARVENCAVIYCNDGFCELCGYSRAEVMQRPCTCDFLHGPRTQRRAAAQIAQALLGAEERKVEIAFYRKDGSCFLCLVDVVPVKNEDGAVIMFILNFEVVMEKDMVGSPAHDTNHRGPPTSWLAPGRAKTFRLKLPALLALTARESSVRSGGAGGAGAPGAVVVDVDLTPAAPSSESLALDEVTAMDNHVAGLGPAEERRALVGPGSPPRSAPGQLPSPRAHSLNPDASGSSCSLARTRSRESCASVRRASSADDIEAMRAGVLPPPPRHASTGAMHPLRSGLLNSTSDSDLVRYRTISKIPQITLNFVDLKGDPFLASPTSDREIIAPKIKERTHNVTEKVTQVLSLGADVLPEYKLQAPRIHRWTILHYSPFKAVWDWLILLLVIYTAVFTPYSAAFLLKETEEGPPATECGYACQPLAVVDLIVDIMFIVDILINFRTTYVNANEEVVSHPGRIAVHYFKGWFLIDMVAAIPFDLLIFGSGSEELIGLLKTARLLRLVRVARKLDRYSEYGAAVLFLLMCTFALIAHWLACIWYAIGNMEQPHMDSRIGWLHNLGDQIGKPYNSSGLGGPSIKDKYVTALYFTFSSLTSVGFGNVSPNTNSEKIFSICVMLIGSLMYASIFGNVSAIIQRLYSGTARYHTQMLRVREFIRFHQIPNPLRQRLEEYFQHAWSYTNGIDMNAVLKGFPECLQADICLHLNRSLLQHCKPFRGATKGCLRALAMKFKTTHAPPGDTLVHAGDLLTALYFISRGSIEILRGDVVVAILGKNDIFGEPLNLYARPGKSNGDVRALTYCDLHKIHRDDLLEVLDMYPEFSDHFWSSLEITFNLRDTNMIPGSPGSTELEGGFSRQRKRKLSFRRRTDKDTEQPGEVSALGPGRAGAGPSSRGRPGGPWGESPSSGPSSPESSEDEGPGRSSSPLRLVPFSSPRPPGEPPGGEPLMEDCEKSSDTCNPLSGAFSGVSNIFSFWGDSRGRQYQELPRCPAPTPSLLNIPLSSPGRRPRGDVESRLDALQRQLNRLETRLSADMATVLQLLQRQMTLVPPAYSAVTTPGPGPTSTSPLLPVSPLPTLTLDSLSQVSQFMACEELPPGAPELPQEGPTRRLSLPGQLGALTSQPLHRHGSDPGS
Sequence of Cytochrome P450 2C19 (P33261 whole entry): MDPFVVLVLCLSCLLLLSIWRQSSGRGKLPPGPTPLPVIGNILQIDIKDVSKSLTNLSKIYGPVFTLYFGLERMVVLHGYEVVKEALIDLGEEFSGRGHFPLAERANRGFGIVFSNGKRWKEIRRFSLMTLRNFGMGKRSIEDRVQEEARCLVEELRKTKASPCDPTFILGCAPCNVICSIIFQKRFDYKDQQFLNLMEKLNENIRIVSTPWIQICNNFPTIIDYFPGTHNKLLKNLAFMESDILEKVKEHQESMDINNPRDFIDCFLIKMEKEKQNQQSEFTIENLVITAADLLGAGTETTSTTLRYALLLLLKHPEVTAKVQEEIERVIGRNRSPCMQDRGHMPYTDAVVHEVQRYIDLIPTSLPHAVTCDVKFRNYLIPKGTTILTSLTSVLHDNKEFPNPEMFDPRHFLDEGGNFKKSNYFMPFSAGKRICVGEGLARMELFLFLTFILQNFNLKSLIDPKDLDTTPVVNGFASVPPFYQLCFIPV
Sequence of Cytochrome P450 3A4 (P08684 whole entry): as the sequence (P08684 whole entry, canonical isoform) above

Structure (SMILES): C[C@@H](C1CC1)N1Cc2cc(-c3ccn4nc(N)c(C(=O)N[C@H]5CC[C@@](C)(O)CC5)c4n3)cc(OC(F)(F)F)c2C1=O
- CLH [1]: 30 mL/min/kg
- IC50 [2]: 240 nM
- IC50 [3]: 2650 nM
- Ratio IC50 (Homo sapiens [4]): 946
- Ratio IC50 (Homo sapiens [5]): 7040
- fraction unbound at 8 h [6]: 0.023
- clearance [7]: 17.2 mL/min/kg
- clearance [8]: 17.7 mL/min/kg
- Vdss [9]: 3.77 L/kg
- half-life [10]: 3.93 h
- half-life [11]: 2.17 h
- AUC(0-inf) [12]: 488 ng·h/mL
- Cmax [13]: 25 ng/mL
- inhibition [14]: Active
- Papp A→B [15]: 4.7 ×10⁻⁶ cm/s
- inhibition at 30 min, 10 µM (CYP3A4): 10%

Structure (SMILES): C[C@@H](C1CC1)N1Cc2cc(-c3ccn4nc(N)c(C(=O)N[C@H]5CC[C@@](C)(O)CC5)c4n3)cc(OC(F)F)c2C1=O
- CLH [1]: 25 mL/min/kg
- Ki [16]: 0.7 nM
- IC50 [2]: 300 nM
- IC50 [3]: 1250 nM
- Ratio IC50 (Homo sapiens [4]): 657
- Ratio IC50 (Homo sapiens [5]): 3680
- fraction unbound at 8 h [6]: 0.021
- clearance [7]: 14.7 mL/min/kg
- clearance [8]: 18 mL/min/kg
- Vdss [9]: 3.69 L/kg
- half-life [10]: 4.98 h
- half-life [11]: 1.89 h
- AUC(0-inf) [12]: 565 ng·h/mL
- Cmax [13]: 703 ng/mL
- IC50 (Cytochrome P450 2B6): > 20000 nM
- IC50 (Cytochrome P450 2C8): > 20000 nM
- IC50 (Cytochrome P450 2C9): > 20000 nM
- IC50 (Cytochrome P450 2C19): > 20000 nM
- IC50 (Cytochrome P450 2D6): > 20000 nM
- IC50 (Cytochrome P450 3A4): > 20000 nM
- IC50 [17]: > 10000 nM
- inhibition [14]: Active
- Activity [18]: Non-Toxic
- Papp A→B [15]: 16.8 ×10⁻⁶ cm/s
- inhibition at 30 min, 10 µM (CYP3A4): 10%
